Assay results taken from ChEMBL document CHEMBL1139731, “Identification of non-furan containing A2A antagonists using database mining and molecular similarity approaches” (Bioorg Med Chem Lett, 2006).

Tests used:
[1] = target: T1, Adenosine receptor A1 (Homo sapiens, UniProt P30542); assay: Displacement of [3H]DPCPX from recombinant adenosine A1 receptor
T1 sequence (P30542 whole entry): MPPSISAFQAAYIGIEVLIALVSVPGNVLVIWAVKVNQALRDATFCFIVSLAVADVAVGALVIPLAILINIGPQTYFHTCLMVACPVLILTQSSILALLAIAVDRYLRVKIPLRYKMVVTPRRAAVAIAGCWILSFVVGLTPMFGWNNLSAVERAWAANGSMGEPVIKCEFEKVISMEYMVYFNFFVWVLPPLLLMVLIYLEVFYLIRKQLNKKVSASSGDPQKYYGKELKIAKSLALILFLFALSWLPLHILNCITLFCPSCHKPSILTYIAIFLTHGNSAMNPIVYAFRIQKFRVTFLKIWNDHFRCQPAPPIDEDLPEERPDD

[2] = target: Adenosine receptor A2a (Homo sapiens, UniProt P29274); assay: Displacement of [3H]CGS21680 from human recombinant adenosine A2A receptor
Sequence of Adenosine receptor A2a (P29274 whole entry): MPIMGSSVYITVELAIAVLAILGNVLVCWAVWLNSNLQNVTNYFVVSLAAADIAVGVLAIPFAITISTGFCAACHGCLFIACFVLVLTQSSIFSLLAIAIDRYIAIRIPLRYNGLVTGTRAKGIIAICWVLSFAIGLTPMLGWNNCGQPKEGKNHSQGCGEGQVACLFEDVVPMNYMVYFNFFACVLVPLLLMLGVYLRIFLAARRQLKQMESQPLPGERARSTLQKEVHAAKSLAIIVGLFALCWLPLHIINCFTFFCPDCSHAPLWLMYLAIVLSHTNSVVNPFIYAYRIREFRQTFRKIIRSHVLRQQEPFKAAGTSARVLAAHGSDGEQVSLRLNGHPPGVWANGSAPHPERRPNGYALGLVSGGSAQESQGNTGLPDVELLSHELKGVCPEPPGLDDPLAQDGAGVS

Ki [1]	Ki [2]	SMILES
865 nM (antagonist)	106 nM (antagonist)	N#Cc1c(-c2ccc(F)cc2)cc(C2CC2)nc1N
> 10000 nM	290 nM (antagonist)	COc1cccc(-c2cc(C(F)(F)F)nc(NCc3ccc(F)cc3)n2)c1
67 nM (antagonist)	5 nM (antagonist)	CCSc1nc(N)nc(-c2ccccc2)n1
239 nM (antagonist)	89 nM (antagonist)	N#Cc1c(-c2ccccc2Cl)cc(-c2ccccc2)nc1N
–	232 nM (antagonist)	N#Cc1c(N)nc2c(c1-c1ccc(F)cc1)CCC2
> 10000 nM	287 nM (antagonist)	Fc1ccc(CNc2nc(-c3ccccc3)cc(C(F)(F)F)n2)cc1
> 10000 nM	287 nM (antagonist)	Fc1ccc(CNc2nc(-c3cccs3)cc(C(F)(F)F)n2)cc1
42 nM (antagonist)	267 nM (antagonist)	CCOc1cc(-c2cc(-c3ccc(O)cc3)nc(N)c2C#N)ccc1O
192 nM (antagonist)	201 nM (antagonist)	N#Cc1c(-c2ccc(Cl)cc2)cc(-c2ccccc2)nc1N
218 nM (antagonist)	31 nM (antagonist)	CSc1nc(N)nc(-c2cccc(-c3ccc4[nH]ccc4c3)c2)n1
> 10000 nM	454 nM (antagonist)	Fc1ccc(CNc2nc(-c3ccc(Cl)cc3)cc(C(F)(F)F)n2)cc1
94 nM (antagonist)	151 nM (antagonist)	COc1cc(-c2cc(-c3ccc(O)cc3)nc(N)c2C#N)ccc1O
1740 nM (antagonist)	403 nM (antagonist)	N#Cc1c(-c2ccc(Cl)cc2)cc(-c2ccccc2Cl)nc1N
274 nM (antagonist)	118 nM (antagonist)	Cc1ccc(-c2cc(-c3ccccc3)nc(N)c2C#N)cc1
59 nM (antagonist)	87 nM (antagonist)	N#Cc1c(-c2ccc(F)cc2)cc(-c2ccccc2)nc1N
> 10000 nM	210 nM (antagonist)	N#Cc1c(-c2ccc(Cl)c(Cl)c2)cc(-c2cccnc2)nc1N

SMILES	Ki [1]	Ki [2]
COc1ccc(-c2cccc(-c3nc(N)nc(SC)n3)c2)cn1	840 nM (antagonist)	23 nM (antagonist)
